{"source": "patent US5795891A", "about": "“Acylphenylglycine derivative and preventive and remedy for diseases caused by increased collagenase activity containing said compound as active ingredient” (Kanebo Ltd., priority 1993, dated 1998)", "key": {"collagenase [1]": {"test_system": "collagenase", "assay": "Collagenase activity inhibition rate in blood after oral administration (in mice)", "format": "in vivo", "settings": "30 mg/kg p.o.", "experimental": "Test compounds were suspended in 0.5% CMC and orally administered to three mice per group (the dose of the test compound, 30 mg/kg), and after a certain period of time, the blood was collected in the presence of heparin and ice-cooled. Plasma was obtained by centrifugation of this blood at 10,000 rpm for 5 minutes at 4° C. To 400 μl of this plasma was added to 600 μl of distilled water, and heated at 100° C. for 10 minutes. After cooling, the mixture was centrifuged at 10,000 rpm for 5 minutes and filtered using a micro-volume ultrafiltration unit (Molcut II, Millipore) to provide a sample (A) for use in collagenase activity measurement. Using this sample, collagenase activity inhibition rate in blood was determined by the following method.\nThe sample (A) above was mixed with a known amount of collagenase (the collagenase used was prepared by the method described in JP-A-3-103178) dissolved in a buffer for measurement (50 mM Tris-HCl buffer, pH 7.5, containing 0.2M sodium chloride, 5 mM calcium chloride, 0.05% Brij-35 and 0.02% sodium azide,), and collagenase activity A was measured according to the method of Nagai et al. (Japanese Journal of Inflammation, 4, 123 (1984)) using a fluorescein isothiocyanate-labeled type-I collagen as a substrate. […] Inhibition rate was determined from the following equation:\nInhibition rate (%)=(1-A/B)×100"}, "adjuvant arthritis [2]": {"test_system": "adjuvant arthritis", "assay": "Adjuvant arthritis model: hind paw volume (swelling of adjuvant-uninjected hind paw)", "format": "in vivo, male Lewis rats", "settings": "100 mg/kg at 12-hour intervals for 20 days; FIG. 1; t-test vs control", "experimental": "(§1) 8-week old male Lewis rats (Charles River Japan, K.K.) were divided into 4 groups (normal control group, control group, and two test compound groups) of 7 animals each. Each of the rats of the control group and the test compound groups were intra-dermally injected with 0.6 mg of heat-killed M. butyricum in 0.1 ml of liquid paraffin suspension in their right hind paw to induce adjuvant arthritis. The test compounds were suspended in 0.5% CMC, and administered to the rats of the test compound group at a dose of 100 mg/kg per administration immediately after the injection of adjuvant and at 12-hour intervals thereafter over a period of 20 days. The rats of the control group received 0.5% CMC immediately after the injection of adjuvant and at 12-hour intervals thereafter over a period of 20 days. The rats of the normal control group were not injected with adjuvant but only administered 0.5% CMC analogously to the administration of the test compounds.\nThe volume of the hind paw was measured immediately before and on days 3, 7, 10, 14, 17 and 20 after the injection of adjuvant using a foot volume measuring apparatus. Analysis was made using t-test for superiority of the test compound group over the control group.\nIn the figure, lines n, c, y and d indicate the volume of the hind paw for the following groups, respectively: […]"}, "adjuvant arthritis [3]": {"test_system": "adjuvant arthritis", "assay": "Adjuvant arthritis model: erythrocyte sedimentation rates", "format": "in vivo, male Lewis rats", "settings": "100 mg/kg at 12-hour intervals for 20 days", "experimental": "as §1\nThe blood was fully removed on day 21 and used as a sample. Erythrocyte sedimentation measuring apparatus (Matsuyoshi's Erythrocyte Sedimentation rack) was used for the measurement, and statistical analysis was made according to the Dunnett's method for the superiority of the test compound group over the control group."}, "adjuvant arthritis [4]": {"test_system": "adjuvant arthritis", "assay": "Adjuvant arthritis model: serum calcium concentration", "format": "in vivo, male Lewis rats", "settings": "100 mg/kg at 12-hour intervals for 20 days", "experimental": "as §1\nMeasurement was carried out on the same sample as above 2) using Calcium TestWAKO (Wako Junyaku), and statistical analysis was made according to the Dunnett's method for the superiority of the test compound group over the control group."}, "adjuvant arthritis [5]": {"test_system": "adjuvant arthritis", "assay": "Adjuvant arthritis model: urinary hydroxyproline excretion", "format": "in vivo, male Lewis rats", "experimental": "as §1\n(§2) After the last administration of the test compounds on day 20, the rats were transferred into metabolic cages, and urine samples were collected overnight without supply of food or water. Urine volume and the amounts of creatinine and hydroxyproline were determined by the following method, and urinary hydroxyproline excretion expressed in the ratio to creatinine. Statistical analysis was made according to the Tukey's method for the superiority of test compound group over the control group. Determination of creatinine was carried out using Creatinine TestWAKO (Wako Junyaku). Hydroxyproline was determined by first hydrolyzing the urine with 6N hydrochloric acid, then isolation on high performance liquid chromatograph equipped with ion-exchange column (Hitachi Gel #2619), reaction with O-phthalaldehyde to form a hydroxyproline derivative, and measurement on a fluorophotometer."}, "bone resorption": {"test_system": "bone resorption", "assay": "Test for inhibition of bone resorption: urine hydroxyproline/creatinine ratio in rats on calcium-deficient food", "format": "in vivo, male Wister rats", "experimental": "Furthermore, an investigation of its suppressive effect was carried out on bone resorption by administering the compound of the present invention to rats kept on a calcium-deficient food and using the urinary hydroxyproline excretion (ratio to creatinine) as an index.\nas §2\n6-week old male Wister rats (SLC Japan) were kept on a calcium-deficient food (Oriental Yeast, 0.0105-0.012% calcium, 0.62% phosphorus), orally administered 100 mg/kg of compound D or Y in a 0.5% CMC suspension on day 6 and, immediately thereafter, urine was collected for 16 hours under the condition of fasting with free access to water. The urine volume and urinary hydroxyproline and creatinirie content were measured by the method described in Example 3, and the urine hydroxyproline/creatinie ratio was calculated. Statistical analysis was made using the Tukey's method for the superiority of the test compound group over the control group."}, "[6]": {"parameters": "species or system mice", "settings": "mouse, in vivo, 3000 mg/kg"}, "collagenase [7]": {"test_system": "collagenase", "assay": "Activity in the living body / absorbability (general statements)", "settings": "in vivo"}}, "data": [{"molecule": "CNC(=O)C(NC(=O)C(CC(C)C)C(C)C(=O)NO)c1ccccc1", "note": "(single isomer, unassigned) [Compound D]", "values": [{"measurement": "Collagenase Inhibition rates in blood after oral administration, After 1 hour", "setting": "collagenase [1]; after 1 hour", "value": 87, "unit": "%"}, {"measurement": "Collagenase Inhibition rates in blood after oral administration, After 2 hours", "setting": "collagenase [1]; after 2 hours (as printed in head; text says 3 hours)", "value": 76, "unit": "%"}, {"measurement": "swelling (volume increase) of the adjuvant-uninjected hind paw", "setting": "adjuvant arthritis [2]", "value": "suppressed the swelling (volume increase) of the adjuvant-uninjected hind paw"}, {"measurement": "effect on increase in erythrocyte sedimentation rates (in words)", "setting": "adjuvant arthritis [3]; vs control", "value": "significantly suppressed the increase in erythrocyte sedimentation rates"}, {"measurement": "Erythrocyte sedimentation rates", "setting": "adjuvant arthritis [3]; day 21, control 33 ± 2, normal 1 ± 0.1, ** P < 0.01 vs control (Compound D)", "value": "20 ± 2"}, {"measurement": "effect on increase in serum calcium concentration (in words)", "setting": "adjuvant arthritis [4]; vs control", "value": "significantly suppressed the increase in serum calcium concentration"}, {"measurement": "Serum calcium conc.", "setting": "adjuvant arthritis [4]; day 21, control 9.5 ± 0.1, normal 8.6 ± 0.1, ** P < 0.01 vs control (Compound D)", "value": "8.9 ± 0.1", "unit": "mg/dL"}, {"measurement": "effect on increase in urinary hydroxyproline excretion (in words)", "setting": "adjuvant arthritis [5]; 100 mg/kg at 12-hour intervals for 20 days", "value": "tended to suppress the increase in urinary hydroxyproline excretion"}, {"measurement": "Urinary hydroxyproline excretion (ratio to creatinine)", "setting": "adjuvant arthritis [5]; after day 20, 100 mg/kg at 12-hour intervals, control 94.3 ± 1.8, normal 71.8 ± 2.6", "value": "78.4 ± 6.1", "unit": "μg/mg creatinine"}, {"measurement": "effect on increase in urine hydroxyproline/creatinine ratio (in words)", "setting": "bone resorption; 100 mg/kg p.o., vs control", "value": "exhibited a significant suppression from the level of the control group"}, {"measurement": "Urinary hydroxyproline excretion (ratio to creatinine)", "setting": "bone resorption; single 100 mg/kg p.o., urine 16 hours, control 174 ± 7, normal 134 ± 7, * P < 0.05 vs control (Compound D)", "value": "144 ± 5", "unit": "μg/mg creatinine"}, {"measurement": "death after oral administration", "setting": "[6]", "value": "no death was observed"}, {"measurement": "activity in the living body (in words)", "setting": "collagenase [7]", "value": "exhibits an excellent activity in the living body"}]}]}
